Key:
[1] = Fluorescence titration of sensor with glutamate; type: binding; conditions: for Ka: pH 5.0, 37° C.
Procedure: (§1) Fluorescence spectra were recorded on a Shimadzu RF-5301 PC spectrofluorometer at 37° C. A 1 mg/mL stock solution of I-2 in DMSO was prepared. A stock solution of I-2 in buffer (1×10^−5 M, 25 mM HEPES, 50 mM Na2S2O3, pH=5.0) was prepared. Norepinephrine, dopamine, epinephrine, and glutamate stock solutions were prepared by separately dissolving the analytes at the concentration to be used in the titration with the buffered stock solution of I-2 (thus avoiding dilution of I-2 during the experiment). I-2 was titrated with aliquots of analyte solution. The sensor was excited at 488 nm with slit widths of 5 nm.
(§2) Fluorescence spectra were recorded on a Shimadzu RF-5301 PC spectrofluorometer at 37° C. A separate 1 mg/mL stock solution of each coumarin-3-aldehyde derivative in DMSO was prepared. An aqueous stock solution of each derivative (10 μM) in buffer (25 mM HEPES, 50 mM Na2S2O3, pH=5.0) was prepared. Norepinephrine, dopamine, glutamate, and epinephrine stock solutions were prepared by separately dissolving the solid analytes at the concentration to be used in the titration with the buffered stock solutions described above and thus, avoiding dilution of the sensor during the experiment. The benzene-based NS521 derivatives were excited at 488 nm. The thiophene-based derivatives were excited at 515 nm.

[2] = Binding affinity toward free primary amines
[3] = system: EP-enriched chromaffin cells; experiment: Fixed-cell staining with I-2 and anti-PNMT antibody, EP-enriched cells; type: cell-based, bovine; conditions: 585 nm = anti-PNMT/Cy3, 525 nm = I-2 (1 μM), ImageJ
From the text: To further validate the selectivity of the inventive sensor, the inventive detection method is validated with an established procedure in which phenylethanolamine N-methyltransferase (PNMT) is stained with an antibody and visualized with a Cy3-conjugated secondary antibody. It has been shown that epinephrine-enriched cell populations gave the highest level of PNMT staining, while norepinephrine-enriched populations gave lower staining (ca. 20% of that with epinephrine-enriched cells). For this experiment, three populations of chromaffin cells (norepinephrine-enriched, epin ephrine-enriched, and mixed) were stained with Compound I-2 and fixed in 4% paraformaldehyde. The fixed cells were stained with the anti-PNMT and secondary antibodies.
Chromaffin cells were isolated from bovine adrenal glands as previously described. […]
NE-enriched cells, EP-enriched cells and mixed cells stained with I-2 (1 μM) and plated on 0.0025% Poly (1-lysine) coated cover slips, after three washed with pre-warmed phosphate-buffered saline (pH=7.4, PBS), were fixed in 4% paraformaldehyde (Sigma, St. Louis, Mo., USA) in PBS for 60 min at room temperature (RT), followed by 6 min in methanol chilled to −20° C. […] After three washed in PBS, bound antibody was detected using Cy™3-conjugated AffiniPure Donkey Anti-Rabbit (1:150 dilution, Jackson ImmunoResearch Laboratories, Inc, Nest Grove, Pa., 19390). […]

[4] = Fluorescence titration of sensor with norepinephrine; type: binding; conditions: for Ka: pH 5.0, 37° C.
Procedure: as §1, §2

[5] = Table 2, analyte glutamate, benzene-based compounds I, excited at 488 nm
[6] = Table 2, analyte norepinephrine, benzene-based compounds I, excited at 488 nm

SMILES: CCN(CC)c1ccc2c(-c3ccc(OC)cc3)c(C=O)c(=O)oc2c1 [Compound I-2, 7-diethylamino-3-formyl-4-(4′-methoxyphenyl)coumarin]
- F.E. [1, 5]: 7.82
- Ka [1, 5]: 9.63 M⁻¹
- Ka ([1]; amine guest glutamate, fluorescence spectroscopy, λex = 488 nm, λem = 521 nm): 10 M⁻¹
- Isat/Io (λex = 488 nm) ([1]; amine guest glutamate, intensity at saturation from fit to binding isotherm): 7.8
- binding affinities toward free primary amines [2]: ~10 M⁻¹
- average fluorescence intensity at 585 nm vs. 525, epinephrine-enriched relative to norepinephrine-enriched cells [3]: 6 times
- F.E. [4, 6]: 5.40
- Ka [4, 6]: 77.76 M⁻¹
- Ka ([4]; amine guest norepinephrine, fluorescence spectroscopy, λex = 488 nm, λem = 521 nm): 75 M⁻¹
- Isat/Io (λex = 488 nm) ([4]; amine guest norepinephrine, intensity at saturation from fit to binding isotherm): 5.3
- binding constants of catecholamines (norepinephrine, dopamine) relative to other alkyl amines such as glycine ([4]; higher binding constants): 10 fold
